Earlier results in patent US12173009B2, “Diamine derivatives as inhibitors of leukotriene A4 hydrolase” (CELLTAXIS, LLC, priority 2005, dated 2024).

Key:
[1] = test system: lower affinity LTB4 receptors on neutrophils; details: additional lower affinity receptors on neutrophils
[2] = biological target: BLT1; details: Human BLT1 and its mouse, rat and guinea pig orthologues
[3] = biological target: T1, Human BLT2 (Homo sapiens, UniProt Q9NPC1); details: Human BLT2 versus BLT1
T1 sequence (Q9NPC1 1-358): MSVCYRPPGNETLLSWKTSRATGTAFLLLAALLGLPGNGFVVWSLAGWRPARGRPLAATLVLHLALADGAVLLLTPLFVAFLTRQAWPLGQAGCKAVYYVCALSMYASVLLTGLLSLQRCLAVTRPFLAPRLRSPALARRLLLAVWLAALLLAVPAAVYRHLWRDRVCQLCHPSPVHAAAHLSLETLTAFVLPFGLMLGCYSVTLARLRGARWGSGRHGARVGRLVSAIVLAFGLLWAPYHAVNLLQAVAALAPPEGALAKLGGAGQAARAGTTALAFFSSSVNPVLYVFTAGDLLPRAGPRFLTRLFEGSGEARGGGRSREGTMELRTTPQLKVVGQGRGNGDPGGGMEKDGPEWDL

[4] = biological target: T2, LTA4-h (Mus musculus, UniProt P24527); details: oral administration; mouse blood ex vivo
T2 construct: host or cells: mouse blood (endogenous enzyme)
T2 sequence (P24527 1-611): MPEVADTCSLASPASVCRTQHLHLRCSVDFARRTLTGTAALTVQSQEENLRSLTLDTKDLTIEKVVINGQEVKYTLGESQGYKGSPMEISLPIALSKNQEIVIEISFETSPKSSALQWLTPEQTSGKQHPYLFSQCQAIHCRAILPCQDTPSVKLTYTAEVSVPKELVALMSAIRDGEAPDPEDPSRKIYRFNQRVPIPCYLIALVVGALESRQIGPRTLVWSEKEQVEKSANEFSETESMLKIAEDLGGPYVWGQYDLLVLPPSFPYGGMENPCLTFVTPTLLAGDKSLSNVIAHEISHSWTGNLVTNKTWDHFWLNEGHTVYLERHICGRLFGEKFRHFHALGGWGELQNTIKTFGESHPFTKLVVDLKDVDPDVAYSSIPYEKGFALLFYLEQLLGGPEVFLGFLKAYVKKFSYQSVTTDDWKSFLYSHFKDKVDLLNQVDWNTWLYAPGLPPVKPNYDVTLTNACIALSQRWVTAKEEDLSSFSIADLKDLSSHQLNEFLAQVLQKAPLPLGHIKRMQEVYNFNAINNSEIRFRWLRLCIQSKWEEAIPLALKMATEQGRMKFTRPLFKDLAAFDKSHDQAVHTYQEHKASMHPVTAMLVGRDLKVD

[5] = biological target: T3, LTA4-h (Rattus norvegicus, UniProt P30349); details: oral administration; rat peritoneum in vivo
T3 construct: host or cells: rat peritoneum (endogenous enzyme)
T3 sequence (P30349 1-611): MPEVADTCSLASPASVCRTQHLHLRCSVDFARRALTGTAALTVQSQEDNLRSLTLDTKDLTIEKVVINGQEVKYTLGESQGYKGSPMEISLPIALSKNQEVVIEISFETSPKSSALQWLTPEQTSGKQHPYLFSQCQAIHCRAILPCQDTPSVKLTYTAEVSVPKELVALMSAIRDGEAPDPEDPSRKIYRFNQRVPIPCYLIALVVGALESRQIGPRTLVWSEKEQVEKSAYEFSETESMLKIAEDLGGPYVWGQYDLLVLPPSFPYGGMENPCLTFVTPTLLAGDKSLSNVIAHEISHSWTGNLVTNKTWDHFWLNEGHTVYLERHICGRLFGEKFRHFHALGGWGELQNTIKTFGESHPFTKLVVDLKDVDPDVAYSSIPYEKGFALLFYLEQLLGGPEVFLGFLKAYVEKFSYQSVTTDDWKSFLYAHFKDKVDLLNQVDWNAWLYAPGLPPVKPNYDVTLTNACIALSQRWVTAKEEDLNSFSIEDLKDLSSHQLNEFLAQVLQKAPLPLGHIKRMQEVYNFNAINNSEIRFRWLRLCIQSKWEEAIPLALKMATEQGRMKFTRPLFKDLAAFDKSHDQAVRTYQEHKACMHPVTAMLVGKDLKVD

[6] = test system: spontaneous colitis; details: eight weeks of treatment; cotton top tamarins

ionophore-induced LTB4 production [4]	ionophore-induced LTB4 production [5]	SMILES	Kd [1]	Kd [2]	lower affinity of BLT2 for LTB4 than BLT1 [3]	colitis symptoms [6]
–	–	CCCCC/C=C\C[C@@H](O)/C=C/C=C/C=C\[C@@H](O)CCCC(=O)O [LTB4, Leukotriene B4]	> 60 nM	0.1 to 0.7 nM	20 fold	–
caused inhibition	caused inhibition	CN(CCCOc1ccc(Cc2ccccc2)cc1)CCC(=O)O.Cl [SC57461]	–	–	–	significantly improved colitis symptoms
